Experimental data from patent publication EP0762893B1, “TREATMENT OF PLASMA” (SUOMEN PUNAINEN RISTI VERIPALVELU, priority 1994, dated 1995).

Assays:
F VIII = assay: Inactivation of F VIII activity during MB photochemical treatment of 2 ml pooled plasma samples (chromogenic substrate assay); type: biochemical; conditions: 1 µmol/l of MB, TL-M 115/33 fluorescent tubes for 1 h
fibrinogen = assay: Inactivation of clottable fibrinogen during MB photochemical treatment of 2 ml pooled plasma samples (thromboplastin time assay); type: biochemical; conditions: 1 µmol/l of MB, TL-M 115/33 fluorescent tubes for 1 h
[1] = Disappearance of ascorbate and urate from plasma during MB photochemical treatment (HPLC); conditions: compared with ascorbate
Method: To study the effect of added ascorbate, we used a plasma pool with a low ascorbate level (35 µmol/l). […] Ascorbate was added to the plasma at different concentrations before MB that was used at a final concentration of 1 µmol/l. Plasma samples of 2 ml were illuminated in 2.5 ml cryotubes (Falcon) with TL-M 115/33 RS fluorescent tubes (Philips) for 1 h. A transparent cooling plate with fluid circulation was placed between the plasma samples and the fluorescent tubes to keep the temperature of the plasma below 22 °C. The irradiation power at the level of the plasma tubes was 1.9 mW/cm^2 at 595-695 nm (40 000 lux). After illumination, the samples were divided into portions of 0.5 ml and frozen.
To study the fate of ascorbate during MB treatment, we followed the concentration of ascorbate at different stages of the treatment and compared it to urate, another antioxidant considered important in plasma. Plasma was illuminated with the fluorescent tubes in 2 ml portions as in Example 1, and the illumination was interrupted at different periods. Urate was measured with the same HPLC method as ascorbate.

Structure (SMILES) | extent of inactivation of factor VIII (F VIII) [%] | absorbing form of MB after dilution | extent of inactivation of fibrinogen (fibrinogen) | disappearance of urate from plasma [1]
CN(C)c1ccc2nc3ccc(=[N+](C)C)cc-3sc2c1 [MB, methylene blue] | ~40 | quantitatively restored | about 50% | –
O=c1[nH]c(=O)c2[nH]c(=O)[nH]c2[nH]1 [Urate, urate] | – | – | – | clearly more slowly than ascorbate
